Results from the supplement of paper PMC11061612.

Experiments:
[1] = test system: EN (Endometrial Carcinoma); experiment: combination Emax (second highest fraction inhibited in the dose matrix, 72 h); higher = more inhibition; extreme values may be limits of the assay
Method in brief: (§1)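 Cell lines grown in DMEM/F12 or RPMI with 10% FBS were plated in 1536-well plates and held 24 hours at 37°C, 5% CO2 before 72 hours of exposure to two-drug dose matrices, with DMSO typically at 0.2%. CellTiter-Glo 2.0 luminescence gave viability, which was converted to inhibition. Vehicle wells were set to 0 and blank wells to 1. Combination Emax is the second-highest inhibition in the matrix, and Bliss excess is the observed combination effect minus the expected EA + EB − EA·EB, where EA and EB are the single-agent effects.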

NCI-H28 (Mesothelioma) = experiment: as above
Method in brief: as §1

[2] = test system: LB771-HNC (Head and Neck Carcinoma); experiment: as above
Method in brief: as §1

HMV-II (Melanoma) [3] = experiment: as above
Method in brief: as §1

[4] = test system: SU-DHL-6 (B-Cell Non-Hodgkin's Lymphoma); experiment: Bliss excess, mean over the matrix (fraction); higher = more synergy
Method in brief: as §1

[5] = test system: 8305C (Thyroid Gland Carcinoma); experiment: as above
Method in brief: as §1

[6] = test system: RPMI-6666 (Non-Cancerous); experiment: as above
Method in brief: as §1

[7] = test system: RKO (Colorectal Carcinoma); experiment: as above
Method in brief: as §1

SH-4 (Melanoma) = experiment: as above
Method in brief: as §1

[8] = test system: CAPAN-1 (Pancreatic Carcinoma); experiment: as above
Method in brief: as §1

[9] = test system: OC-314 (Ovarian Carcinoma); experiment: as above
Method in brief: as §1

[10] = test system: LB771-HNC (Head and Neck Carcinoma); experiment: as above
Method in brief: as §1

[11] = test system: 639-V (Bladder Carcinoma); experiment: as above
Method in brief: as §1

[12] = test system: RT-112 (Bladder Carcinoma); experiment: as above
Method in brief: as §1

HMV-II (Melanoma) [13] = experiment: as above
Method in brief: as §1

[14] = test system: CAL-51 (Breast Carcinoma); experiment: as above
Method in brief: as §1

[15] = test system: Hs-633T (Other Solid Carcinomas); experiment: as above
Method in brief: as §1

[16] = test system: UMC-11 (Other Solid Carcinomas); experiment: as above
Method in brief: as §1

[17] = test system: HCC-15 (Squamous Cell Lung Carcinoma); experiment: as above
Method in brief: as §1
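Throughout, for Bliss excess, mean over the matrix: after 72 h of two-drug dosing.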

Cc1nc(Nc2ncc(C(=O)Nc3c(C)cccc3Cl)s2)cc(N2CCN(CCO)CC2)n1 [Dasatinib] + CC(=O)Nc1cccc(-n2c(=O)n(C3CC3)c(=O)c3c(Nc4ccc(I)cc4F)n(C)c(=O)c(C)c32)c1 [Trametinib] (first compound max 2 µM, 7x7, partner max 1 µM)
combination Emax [1]: 0.289
combination Emax (NCI-H28 (Mesothelioma)): 0.721
combination Emax [2]: 0.202
combination Emax (HMV-II (Melanoma) [3]): 0.786
Bliss excess [4]: 0.0272
Bliss excess [5]: 0.0279
Bliss excess [6]: 0.0193
Bliss excess [7]: 0.119
Bliss excess (SH-4 (Melanoma)): -0.0721
Bliss excess [8]: 0.0044
Bliss excess [9]: 0.0153
Bliss excess [10]: -0.0363
Bliss excess [11]: -0.0398
Bliss excess [12]: -0.0344
Bliss excess (HMV-II (Melanoma) [13]): -0.136
Bliss excess [14]: -0.017
Bliss excess [15]: 0.0302
Bliss excess [16]: -0.0733
Bliss excess [17]: 0.193

NC1(C(=O)N[C@@H](CCO)c2ccc(Cl)cc2)CCN(c2ncnc3[nH]ccc23)CC1 [Capivasertib] + CC(C)n1c(=O)n(C)c2cnc3cc(F)c(-c4ccc(OCCCN5CCCCC5)nc4)cc3c21 [AZD1390] (first compound max 10 µM, 7x7, partner max 0.3 µM)
combination Emax [1]: 0.574
combination Emax (NCI-H28 (Mesothelioma)): 0.281
combination Emax [2]: 0.395
combination Emax (HMV-II (Melanoma) [3]): 0.358
Bliss excess [4]: -0.0071
Bliss excess [5]: -0.0773
Bliss excess [6]: -0.08
Bliss excess [7]: -0.0429
Bliss excess (SH-4 (Melanoma)): -0.0856
Bliss excess [8]: -0.0812
Bliss excess [9]: -0.0412
Bliss excess [10]: -0.0687
Bliss excess [11]: -0.0376
Bliss excess [12]: -0.0581
Bliss excess (HMV-II (Melanoma) [13]): -0.0435
Bliss excess [14]: -0.0972
Bliss excess [15]: -0.0656
Bliss excess [16]: -0.0807
Bliss excess [17]: -0.0608

CC(=O)c1c(C)c2cnc(Nc3ccc(N4CCNCC4)cn3)nc2n(C2CCCC2)c1=O [Palbociclib] + CC1(C)CCC(CN2CCN(c3ccc(C(=O)NS(=O)(=O)c4ccc(NCC5CCOCC5)c([N+](=O)[O-])c4)c(Oc4cnc5[nH]ccc5c4)c3)CC2)=C(c2ccc(Cl)cc2)C1 [Venetoclax] (first compound max 10 µM, 7x7, partner max 1 µM)
combination Emax [1]: 0.146
combination Emax (NCI-H28 (Mesothelioma)): 0.389
combination Emax [2]: 0.149
combination Emax (HMV-II (Melanoma) [3]): 0.494
Bliss excess [4]: 0.0694
Bliss excess [5]: -0.0306
Bliss excess [6]: -0.0674
Bliss excess [7]: -0.0498
Bliss excess (SH-4 (Melanoma)): -0.0734
Bliss excess [8]: -0.019
Bliss excess [9]: -0.0526
Bliss excess [10]: -0.0429
Bliss excess [11]: -0.0686
Bliss excess [12]: 0
Bliss excess (HMV-II (Melanoma) [13]): -0.0895
Bliss excess [14]: 0.0055
Bliss excess [15]: -0.0251
Bliss excess [16]: 0.0737
Bliss excess [17]: -0.0364

C[C@@H](c1ccc2nccn2c1)n1nnc2ncc(-c3cnn(C)c3)nc21 [Savolitinib] + CC1(C)CCC(CN2CCN(c3ccc(C(=O)NS(=O)(=O)c4ccc(NCC5CCOCC5)c([N+](=O)[O-])c4)c(Oc4cnc5[nH]ccc5c4)c3)CC2)=C(c2ccc(Cl)cc2)C1 [Venetoclax] (first compound max 1 µM, 7x7, partner max 1 µM)
combination Emax [1]: 0.238
combination Emax (NCI-H28 (Mesothelioma)): 0.181
combination Emax [2]: 0.115
combination Emax (HMV-II (Melanoma) [3]): 0.12
Bliss excess [4]: 0.0481
Bliss excess [5]: -0.115
Bliss excess [6]: -0.0557
Bliss excess [7]: -0.05
Bliss excess (SH-4 (Melanoma)): -0.0535
Bliss excess [8]: -0.0613
Bliss excess [9]: -0.0046
Bliss excess [10]: -0.0912
Bliss excess [11]: -0.112
Bliss excess [12]: -0.046
Bliss excess (HMV-II (Melanoma) [13]): -0.0621
Bliss excess [14]: -0.0522
Bliss excess [15]: -0.0383
Bliss excess [16]: -0.0303
Bliss excess [17]: -0.0229

C[C@@H](c1ccc2nccn2c1)n1nnc2ncc(-c3cnn(C)c3)nc21 [Savolitinib] + Cc1c2c(nn1C)CSCc1cc(n(C)n1)CSc1cc(c3ccccc3c1)OCCCc1c(C(=O)O)n(C)c3c-2c(Cl)ccc13 [AZD5991] (first compound max 1 µM, 7x7, partner max 1 µM)
combination Emax [1]: 0.43
combination Emax (NCI-H28 (Mesothelioma)): 0.155
combination Emax [2]: 0.412
combination Emax (HMV-II (Melanoma) [3]): 0.128
Bliss excess [4]: -0.013
Bliss excess [5]: -0.0781
Bliss excess [6]: -0.0329
Bliss excess [7]: -0.0067
Bliss excess (SH-4 (Melanoma)): -0.0252
Bliss excess [8]: -0.0702
Bliss excess [9]: -0.018
Bliss excess [10]: -0.054
Bliss excess [11]: -0.111
Bliss excess [12]: -0.0265
Bliss excess (HMV-II (Melanoma) [13]): -0.0404
Bliss excess [14]: -0.0115
Bliss excess [15]: -0.0551
Bliss excess [16]: -0.0026
Bliss excess [17]: -0.0349

Cn1cnc2c(F)c(Nc3ccc(Br)cc3Cl)c(C(=O)NOCCO)cc21 [Selumetinib] + CC(C)n1c(=O)n(C)c2cnc3cc(F)c(-c4ccc(OCCCN5CCCCC5)nc4)cc3c21 [AZD1390] (first compound max 10 µM, 7x7, partner max 0.3 µM)
combination Emax [1]: 0.261
combination Emax (NCI-H28 (Mesothelioma)): 0.262
combination Emax [2]: 0.136
combination Emax (HMV-II (Melanoma) [3]): 0.719
Bliss excess [4]: -0.0323
Bliss excess [5]: -0.057
Bliss excess [6]: -0.0234
Bliss excess [7]: -0.0273
Bliss excess (SH-4 (Melanoma)): -0.0993
Bliss excess [8]: -0.0537
Bliss excess [9]: -0.0357
Bliss excess [10]: -0.067
Bliss excess [11]: -0.0783
Bliss excess [12]: -0.0217
Bliss excess (HMV-II (Melanoma) [13]): -0.0262
Bliss excess [14]: -0.0271
Bliss excess [15]: 0.0303
Bliss excess [16]: -0.0422
Bliss excess [17]: 0.0148
